In patent publication US12611438B2, “Antiviral composition comprising a nucleolin-binding peptide” (ANYGEN CO., LTD., priority 2021, dated 2026):

Experiments:
[1] = 2 mg/kg, tail vein, C57BL/6 mice
Description: (§1) In order to determine whether or not the stability of the peptide is enhanced, the in vivo half-life of the peptide was analyzed. […] The absorbance was measured at a wavelength of 450 nm using a VersaMax ELISA plate reader (Molecular Devices) and pharmacokinetics were analyzed with the phoenix WinNonlin 8.1 (Pharsight Corporation, Mountain View, CA, USA) program.

in vivo = conditions: C57BL/6, mouse, serum, 2 mg/kg
Description: as §1

SARS-COV-2 = experiment: microbe, parasite or virus in culture; conditions: Severe acute respiratory syndrome coronavirus 2, Vero C1008, 24 h
in vitro = conditions: African green monkey
MDA-MB-231 = experiment: OBOC bead whole-cell binding assay; conditions: peptide on OBOC beads, cells at 10^6 cells/ml
Description: (§2) Before screening, beads were extensively washed with double distilled water and phosphate buffered saline (PBS; Welgene Inc., Republic of Korea). Cancer cells and normal cells were separated from the culture dish using trypsin/EDTA (Gibco) and washed with the corresponding culture medium. The cells were resuspended at 10^6 cells/ml and cultured while shaking (60 rpm) in a 37° C. humidified CO2 incubator with OBOC beads in a Petri dish. Beads bound by cells observed with the microscope had the shape of rosettes having central beads covered with one or more cell layers. Under an inverted microscope, positive beads were picked out with a pipette, and treated with guanidine-HCL (8M, 20 minutes) to remove cells and proteins from the bead surface, and secondary screening was performed with normal breast epithelial cells to detect false positive binding. Peptide sequencing was performed by selecting only beads having cell binding in both rounds.
(§3) Libraries of peptides listed in beads (50,000 to 100,000 beads were used at one time) was mixed with a human breast cancer cell line (MDA-MB-231). […] Then, these three peptides were labeled with fluorescein isothiocyanate (FITC) and the ability thereof to bind to MDA-MB-231 cells was determined.

MCF-10A, CCD-18Co = experiment: Bead whole-cell binding assay, normal cell lines; conditions: cell growth bead analysis
Description: as §2, §3

CSCC[C@H](NC(=O)[C@H](C)NC(=O)CNC(=O)[C@H](Cc1c[nH]cn1)NC(=O)[C@@H](N)CCCNC(=N)N)C(=O)N[C@H](C(=O)N[C@@H](Cc1ccc(O)cc1)C(=O)N[C@@H](CC(C)C)C(=O)N[C@@H](CCCCN)C(=O)NCCOCCOCCOCCOCCOCCOCCC(=O)NCCCC[C@H](NC(=O)CCOCCOCCOCCOCCOCCOCCNC(=O)[C@H](CCCCN)NC(=O)[C@H](CC(C)C)NC(=O)[C@H](Cc1ccc(O)cc1)NC(=O)[C@@H](NC(=O)[C@H](CCSC)NC(=O)[C@H](C)NC(=O)CNC(=O)[C@H](Cc1c[nH]cn1)NC(=O)[C@@H](N)CCCNC(=N)N)C(C)C)C(=O)NCCCC[C@H](NC(=O)[C@H](CCCCNC(=O)CCOCCOCCOCCOCCOCCOCCNC(=O)[C@H](CCCCN)NC(=O)[C@H](CC(C)C)NC(=O)[C@H](Cc1ccc(O)cc1)NC(=O)[C@@H](NC(=O)[C@H](CCSC)NC(=O)[C@H](C)NC(=O)CNC(=O)[C@H](Cc1c[nH]cn1)NC(=O)[C@@H](N)CCCNC(=N)N)C(C)C)NC(=O)CCOCCOCCOCCOCCOCCOCCNC(=O)[C@H](CCCCN)NC(=O)[C@H](CC(C)C)NC(=O)[C@H](Cc1ccc(O)cc1)NC(=O)[C@@H](NC(=O)[C@H](CCSC)NC(=O)[C@H](C)NC(=O)CNC(=O)[C@H](Cc1c[nH]cn1)NC(=O)[C@@H](N)CCCNC(=N)N)C(C)C)C(=O)N[C@@H](CS)C(=O)O)C(C)C [AGM-330t]
in vivo stability compared with monomeric or dimeric peptides [1]: higher stability
Cmax (in vivo; intravenous): 1880 ± 670 ng/mL
Tmax (in vivo; intravenous): 0.167 h
half-life (in vivo; intravenous): 9.43 ± 1.21 h
AUC (in vivo; iv): 21400 ± 810 ng·h/mL

CCN(CC)CCCC(C)Nc1ccnc2cc(Cl)ccc12 (stereo not drawn) [Chloroquine, chloroquine]
IC50 (SARS-COV-2): 8.25 µM

Cc1cccc(C)c1OCC(=O)N[C@@H](Cc1ccccc1)[C@@H](O)C[C@H](Cc1ccccc1)NC(=O)[C@H](C(C)C)N1CCCNC1=O [Lopinavir, lopinavir]
CC50 at 24 h (in vitro): > 50 µM
IC50 (SARS-COV-2): 15.5 µM

CCC(CC)COC(=O)[C@H](C)N[P@](=O)(OC[C@H]1O[C@@](C#N)(c2ccc3c(N)ncnn23)[C@H](O)[C@@H]1O)Oc1ccccc1 [Remdesivir, remdesivir]
CC50 (in vitro): > 50 µM
IC50 (SARS-COV-2): 10.9 µM

AVARARRRR (Synthetic construct AGM-332)
binding to breast cancer cell line MDA-MB-231 (MDA-MB-231): strong, specific, and preferential binding
binding to normal cell lines MCF-10A and CCD-18Co (MCF-10A, CCD-18Co): relatively non-specific and bound
